Results reported in US20260209135A1, “METHOD OF FORTIFYING FERTILIZER WITH LIPO-CHITOOLIGOSACCHARIDE (LCO)” (priority 2022, published 2026).

How the values were obtained:
Corn [1] = test: Corn pot study, LCO and urease inhibitor fortified urea and WSF (Example 6); format: in vivo; conditions: urea study
Protocol: NBPT (N-(n-butyl) thiophosphoric triamide) was suspended in propylene glycol (PG) and dimethyl sulphoxide (DMSO) in the ratio of 20:50:30. In the current experiment two different doses of NBPT was fortified to the fertilizers, low dose consisting of 400 ppm and high dose 800 ppm was fortified per Kg of fertilizer.
The fortifying mixture consists of 0.7 ml of LCO (1.90e-5) and 2 ml of NBPT (400 ppm) was fortified to 1 Kg of fertilizer. Whereas another fortifying mixture consists of 0.7 ml of LCO (1.90e-5) and 4 ml of NBPT (800 ppm) was fortified to 1 Kg of fertilizer. After fortification samples were taken for conducting pot trails.
A pot study was conducted for evaluating LCO and Urease inhibitor fortified Urea and WSF on an experimental crop. Corn was selected as a subject crop for the pot study. The experiment consists of 13 treatments as listed below. The pot study is done in pots of 2 Kg soil capacity. The experiment duration is 20 days.
• 1. Untreated Control • 2. WSF • 3. WSF+LCO • 4. WSF+LCO+UI (Low-400 ppm) • 5. […]
From the onset of the experiment plant height and chlorophyll was measured at every 10th, 15th, and 20th day after sowing. Plant height and dry biomass of leaves and root were measured manually using scales, whereas chlorophyll was measured using chlorophyll meter. Leaf area was calculated based on the dry weight method, by developing a dry-weight weight versus leaf area curve for corn leaf samples of known area.
Available nitrogen from the soil was estimated from the soil samples using wet aggregate analysis method of estimation. […] The available nitrogen is expressed as kg/ha.
Total nitrogen as percent was determined from the dried plant samples using Kjeldahl method of estimation. The total nitrogen in plant is expressed as percentage. Nitrogen uptake was calculated by multiplying the shoot biomass with the nutrient concentration. Nitrogen use efficiency (NUE) is determined as the percent of the applied nitrogen that was taken up by the plants.
From the onset of the experiment plant height and chlorophyll was measured every 5 days interval starting from 10th DAS. […]

[2] = system: Green gram (Vigna radiata); test: Green gram seedlings treated with LCO: root length; format: in vivo; conditions: vs control seedlings without LCO, FIG. 28
Text: (§1) FIG. 28 represents a graph showing root length measured @ 10 DAS in beans, horse gram and green gram seedlings: untreated control and treated with LCO.

Corn [3] = test: Corn microplot trial, granular fertilizer fortified with LCO (Example 5); format: in vivo, Maize; conditions: LCO at 22.5 ml per bag of GF, over control
Protocol: Maize seeds were sown directly to microplot on 29 Oct. 2020 and the experiment was completed by third week of January 2021. Experiment was conducted in 3*3 microplots in 7 replications for treatment and 6 replications for control, microplots were distributed in a completed random block experimental design. Treatment was imposed by fertigation at 2 times point with doses divided in to 50% each first at time of transplanting and second one at 40 days after transplanting (Table 11). Plants were grown by following the standard package of practices developed by the university of Agricultural Science Bangalore, for further details information have a look at the crop calendar (Table 11). [table] Treatment was in a complete random block design, with 7 replications per treatment and 6 replication per control. Following parameter/observation WAS recorded: • 1. Plant number per plot • 2. Plant height • 3. Chlorophyll content • 4. Stem girth • 5. Cob number • 6. Cob dry weight • 7. Yield/grain weight per plot or plant Data were analysed with JMP software by comparing means using all pairs Tukey HSD. Error bars shown in graphs are SD. Bar graphs represent the mean. Different alphabet indicates significant difference between the treatment. […] FIG. 8: Plant height were measured at three different time point viz 33, 53 and 138 days after sowing, data represented here are means and error bar represent standard deviation. NS denotes no significant difference between the treatment.

Rice (Oryza sativa) = test: Rice seedlings treated with LCO: root length; format: in vivo; conditions: vs control seedlings without LCO, FIG. 29
Text: (§2) FIG. 29 represents a graph showing root length measured @ 4 DAS in ragi and rice seedlings: untreated control and treated with LCO.

Capsicum = Capsicum net house trial, WSF fortified with LCO (Example 2); format: in vivo, Capsicum (Diana variety); conditions: fortification of WSF with LCO vs WSF only
Cabbage [4] = test: Cabbage microplot trial, WSF fortified with LCO (Example 1); format: in vivo, Cabbage (Enza zaden variety); conditions: average, vs control (only WSF)
Protocol: Cabbage seedling (Enza zaden variety) were transplanted on 16 Oct. 2020 and the experiment was completed by end of December 2020. Experiment was conducted in 3*3 microplots in 9 replications for treatment and control, microplots were distributed in a completed random block experimental design. Treatment was imposed by fertigation at 3 times point with doses divided in to 22, 39 and 39% respectively (Table 6). Plants were grown by following the standard package of practices developed by the university of Agricultural Science Bangalore. [table] Treatment was in a complete random block design, with 9 replications per treatment. Following parameter/observation was recorded: • 1. Plant number per plot • 2. Fruit weight per plot • 3. Fruit weight per plant • 4. Vertical circumference • 5. Radial circumference Data were analysed with JMP software by comparing means using all pairs Tukey HSD. Error bars shown in graphs are SD. Bar graphs represent the mean. Different alphabet indicates significant difference between the treatment.

[5] = system: finger millet (Eleusine coracana) seedlings; test: Ragi seedlings treated with LCO: root hairs and root length; format: in vivo
Text: FIG. 27 represents a graph showing number of root hairs in seedlings of ragi @ 3 DAS: untreated control (UTC) and treated with LCO.
as §2

Corn [6] = test: Corn field study, bulk granular fertilizer with LCO (Example 8); format: in vivo; conditions: bulk fertilizer combined with LCO compared to fertilizer alone
Protocol: The field experiment was conducted at an agricultural farm in Bangalore in Rabi season of 2020. The study was conducted as randomized complete block design with 7 treatments with 9 replications and each plot measured about 9 m^2 in area. Hybrid corn seeds of a popular brand was used for the trial. Different grades of Bulk fertilizers are available in market generally sold in 50 kg packages. The N:P:K-19:19:19 grade bulk fertilizer was used for the current study. Bulk fertilizer was combined with 3 doses of LCO at the rate of 11.25 ml, 22.5 ml, and 33.75 ml per 50 kg bag of fertilizer. The application dose was calculated based on the crop and standard fertilizer recommendation to the select crop. About 50% quantity of the treatments were applied to the crop as basal application at the time of planting and rest of the quantity for each treatment was applied at 40 DAS. [table] [table] The trial was harvested in January 2021, when the cobs were fully matured. The yield parameters such as number of cobs per plot and cob yield per plot were recorded. The number of cobs per plot was normalized based on plant density per plot. The cobs of each plot were threshed separately and grain weight per plot was recorded and interpreted as Kg per plot normalized to number of plants per plot.

[7] = system: White French Beans seedlings; test: Seedling bioassay in tubes, WSF (19:19:19) fortified with LCO (Example 3); format: in vivo; conditions: 10 days
Protocol: [table] Locally available beans variety were used for the study. Experiment was conducted in 50 ml falcon tube filled with soilrite which acts as growing substrate. Treatment solution as given in the table were prepared in demineralised water and 10 ml of respective solution were applied to each tube after sowing (2.5 cm depth). Fortified, unfortified WSF and LCO were tested at 2 doses along with absolute control. Subsequently, the seedlings were maintained under […] (200 […], 12 hrs light and dark), ambient temperature of 25 degree Celsius. The tubes were incubated for 10 days and irrigated with water as and when required. After 10 days, the experiment was terminated and the plants were phenotyped for recording the traits vz Hypocotyl length, epicotyl length, shoot length and root length.

Cabbage [8] = test: Cabbage microplot trial, granular fertilizer fortified with LCO (Example 4); format: in vivo, Cabbage (Enza zaden variety)
Cabbage [9] = test: Cabbage field study, bulk granular fertilizer with LCO (Example 7); format: in vivo; conditions: bulk fertilizer combined with LCO compared to fertilizer alone
Protocol: The field experiment was conducted at an agricultural farm in Bangalore in Rabi season of 2020. The study was conducted in randomized complete block design with 7 treatments and 7 replications per treatment with each plot measuring approximately 9 m^2 in area (Table-12 & 13). Cabbage seedlings of a popular variety was used for the trial. Different grades of bulk fertilizers were available in market generally sold in 50 kg packages. The N:P:K-19:19:19 grade bulk fertilizer was used for the current study. Treatments of LCO fortified bulk fertilizer with 3 doses of LCO 11.25 ml, 22.5 ml, and 33.75 ml were formulated per 50 kg bag of fertilizer. The application dose was calculated based on the crop and standard fertilizer recommendation to the select crop. About 50% of calculated quantity of fertilizers were applied to the crop on a per plot basis as basal application at the time of planting and rest of the quantity of each treatment was applied at 40 days after transplanting (DAT). [table] […] The yield per plot was measured by weighing all the heads harvested from each plot. The vertical and horizontal diameter of the head was measured using a measuring tape and the volume of each cabbage head was calculated by the following formula V=4/3·π·(a)^2·b • Where, • V=Volume of the head • a=Horizontal diameter of the head • b=Vertical diameter of the head

[10] = system: Horse gram (Macrotyloma uniflorum); test: Horse gram seedlings treated with LCO: root length; format: in vivo; conditions: vs control seedlings without LCO, FIG. 28
Text: as §1

[11] = system: Beans (Phaseolus vulgaris L); test: Beans seedlings treated with LCO: root length; format: in vivo; conditions: vs control seedlings without LCO, FIG. 28
Text: as §1

[12] = at low pH; cited from earlier work

With CCCCCC/C=C\CCCCCCCCCC(=O)N[C@H]1[C@H](O[C@H]2[C@H](O)[C@@H](NC(C)=O)[C@H](O[C@H]3[C@@H](O)[C@@H](NC(C)=O)[C@H](O[C@H]4[C@H](O)[C@@H](NC(C)=O)[C@H](O[C@H]([C@H](O)[C@H](C=O)NC(C)=O)[C@H](O)CO)O[C@@H]4CO)O[C@@H]3O)O[C@@H]2CO)O[C@H](CO)[C@@H](O)[C@@H]1O [LCO, Lipo-chitooligosaccharide] the “total nitrogen (leaf nitrogen content), result in words” value (Corn [1]; 20 days old corn seedlings, Kjeldahl, FIG. 22) was “much higher than urea+UI at 400 ppm and equal to urea+UI at 800 ppm”, the “leaf dry weight, result in words” value (Corn [1]; corn seedlings, 20 DAS, FIG. 18) was “better than WSF alone” and the “leaf area, result in words” value (Corn [1]; corn seedlings, 20 DAS, FIG. 20) was “better than WSF alone”. The “root length, result in words” value [2] was “increases the length of roots”, the “increase in cob weight per plot” value (Corn [3]) was at most 10 and the “increase in grain weight per plot” value (Corn [3]) was at most 9. The “increase in number of cobs per plant” value (Corn [3]) was at most 18%, the “root length, result in words” value (Rice (Oryza sativa)) was “increases the length of roots” and the “capsicum yield, result in words” value (Capsicum) was “increase in yield, even though there is no statistically significant difference”. The increase in yield (Cabbage [4]; cabbage yield (kg/plot), LCO with or without proxel) was 7%, the increase in circumference (Cabbage [4]; cabbage, WSF 19:19:19 with LCO with or without proxel) was 2% and the “number of root hairs, result in words” value ([5]; 3 days after treatment, vs untreated control, FIG. 27) was “increase root hairs”. For the same compound, the “root length, result in words” value ([5]; vs control seedlings without LCO, FIG. 29) was “increases the length of roots”, the “average number of cobs per plot, result in words” value (Corn [6]) was “enhanced” and the “grain yield per plot, result in words” value (Corn [6]) was “enhanced”. It also gave an Epicotyl length ([7]; concentration 8.75E−12 %) of 1.75 cm, a Hypocotyl length ([7]; concentration 8.75E−12 %) of 9 cm and a Root length ([7]; concentration 8.75E−12 %) of 12.12 cm. For the same compound, the “Shoot length (hypocotyl + Epicotyl length)” value ([7]; concentration 8.75E−12 %) was 10.77 cm, the Epicotyl length ([7]; concentration 8.75E−14 %) was 1.87 cm and the Hypocotyl length ([7]; concentration 8.75E−14 %) was 8.3 cm. For the same compound, the Root length ([7]; concentration 8.75E−14 %) was 13.41 cm, the “Shoot length (hypocotyl + Epicotyl length)” value ([7]; concentration 8.75E−14 %) was 10.26 cm and the “cabbage circumference, result in words” value (Cabbage [8]; GF fortified with LCO vs control (only GF)) was “marginal increase in circumference of cabbage heads”. The increase in circumference (Cabbage [8]; cabbage, GF 19:19:19 with LCO with or without proxel, average, vs control (only GF)) was 0.4%, the “average volume of cabbage heads, result in words” value (Cabbage [9]) was “enhanced average volume of cabbage heads” and the “root length, result in words” value [10] was “increases the length of roots”. For the same compound, the “root length, result in words” value [11] was “increases the length of roots”.

For CCCCNP(N)(N)=S [NBPT, N-(n-butyl) thiophosphoric triamide], the “time within which decayed” value [12] is given as at most 24 h.
